The results in this text go back to patent US20070142465A1, “Macrophage activation inhibitor” (priority 2003, published 2007).

For test [1], the system named is NF-κB. Nature of the test: Inhibition of NF-κB activation. Particulars: compared with (±)-DHM2EQ.
The subject of test [2] is RAW264.7 cells. The test can be described thus: TNF-α secretion from IL-1β-activated RAW264.7 cells. The settings on record: IL-1β 10 ng/ml, 6 h. The format is cell-based.
The test system of test [3] is RAW264.7 cells. The test can be described thus: NO production in activated RAW264.7 cells (Griess reagent, OD570). The class given is cell-based. The protocol: It is known that, in macrophages, the expression of iNOS is induced by lipopolysaccharides such as LPS and interferons such as IFN-γ, thereby triggering NO production. Thus, by using macrophage-derived cultured cells, the influence of (±)-DHM2EQ on NO production when LPS and IFN-γ were used in combination with (±)-DHM2EQ was examined.
(§1) Since NO produced is released out of cells and mixed in the medium, being present as NO2^−, the amount of NO produced was determined by developing a color reaction and measuring optical density (OD570) after the addition of the Griess reagent to the a medium. Then, each amount of NO produced when (±)-DHM2EQ was applied at different concentrations was compared as a relative value by taking OD570 of the sample […] the addition of macrophage activating factor as 100%.
(§2) A cell suspension prepared at 4×10^5 cells/ml was plated at 200 μl/well in 96-well plates (Costar:Acton, Mass.). (±)-DHM2EQ was diluted at 0, 1, 3, and 10 μg/ml and added to each well of the plates. After 2-hour incubation under the condition of 37° C. in 5% CO2, IFN-γ (final concentration: 100 ng/ml) and LPS (final concentration: 10 μg/ml) were added to the wells and then the plates were incubated for 18 hours. 100 μl of the Griess reagent was added to each of the cell suspensions and allowed to react for 10 min, and then OD570 was measured with a microplate reader.
For orientation: Griess reagent forms a coloured azo dye with nitrite.

Test [4] deals with J774.1 cells. The test can be described thus: NO production in activated J774.1 cells (Griess reagent). The class given is cell-based. The settings on record: IFN-γ + LPS. The method, then: as §1, §2
The effect of (±)-DHM2EQ on NO production in another activated macrophage-derived cell line, J774.1, was examined in the same manner as described in Example 1.

Test [5] deals with RAW264.7 cells. Nature of the test: Intracellular NO in RAW264.7 cells observed in situ with DAF-2DA fluorescence. The class given is cell-based. The settings on record: IFN-γ + LPS, 10 μg/ml compound. The protocol: Further, to observe suppression of NO production in situ in macrophage-derived RAW264.7 cells by (±)-DHM2EQ when LPS and IFN-γ are used in combination with (±)-DHM2EQ, intracellular NO was directly observed using diaminofluorescein-2 diacetate (DAF-2DA; Daiich Pure Chemicals).
500 μl of RAW264.7 cells were first plated in each chamber on chamber slides at a concentration of 6×10^5 cells/ml. After 1 day incubation under the condition of 37° C. in 5% CO2, (±)-DHM2EQ was added, followed by 2-hour incubation. Subsequently, IFN-γ (final concentration: 100 ng/ml) and LPS (final concentration: 10 μg/ml) were added, followed by 6-hour incubation. Then, the medium was changed to DAF-2DA-containing phosphate buffered saline (PBS; 8 g/l NaCl, 0.2 g/l KCl, 0.916 g/l Na2HPO4, 0.2 g/l KH2PO4), followed by further 2-hour incubation. The fluorescence images were then observed with a fluorescence microscope.

The subject of test [6] is RAW264.7 cells. The test can be described thus: Phagocytosis of fluorescent-labeled E. coli by activated RAW264.7 cells. The format is cell-based. The text has this:
Macrophages contribute to host defense mechanism by, when infected with bacteria, engulfing the whole or part of the bacteria as foreign matter and digesting the foreign matter in the lysosome containing hydrolytic enzymes, etc. This penomenon of engulfing foreign matter, referred to as phagocytosis, is marker of macrophage activation. Thus, by using as a marker phagocytotic ability of RAW264.7 cells derived from macrophages activated by the LPS or IL-1β stimulation, the effect of (±)-DHM2EQ on macrophage activation was examined.
500 μl of RAW264.7 cells were plated in each chamber at a concentration of 4×10^5 cells/ml in chamber slides. After an overnight incubation, (±)-DHM2EQ was added, and the slides were incubated for 2 hours. LPS (final concentration: 1 μg/ml) was then added, and the slides were incubated for 10 mins and then washed with 750 μl of PBS two times. Subsequently, PBS was removed and 250 μl of the solution containing fluorescent-labeled E. coli (Molecular probes, U.S.) (i.e. a solution of fluorescent-labeled E. coli diluted with […] of PBS) was added to each chamber, and the slides were incubated for 2 hours at room temperature the cells were then washed twice in 750 μl of PBS and the phagocytic ability of macrophage-derived RAW264.7 cells were observed under a fluorescence microscope and a phase-contrast microscope. In addition, in the activation using IL-1β, the phagocytic ability of macrophage-derived RAW264.7 cells was examined in the same manner as above, except that IL-1β (final concentration: 10 ng/ml) was added in place of LPS.

The subject of test [7] is RAW264.7 cells. Nature of the test: IL-1β secretion from LPS-activated RAW264.7 cells (ELISA). Particulars: LPS 10 μg/ml, 24 h, 0, 1, 3, 10 μg/ml compound. The format is cell-based, mouse. The method, then:
Next, the effect of (±)-DHM2EQ on IL-1β secretion, which is another marker of macrophage activation in macrophage-derived RAW264.7 cells activated by […], was examined.
500 μl of RAW264.7 cells were plated in each well at a concentration of 4×10^5 cells/ml, and the plates were incubated at 37° C. for 1-day. (±)-DHM2EQ (final concentrations: 0, 1, 3, and 10 μg/ml) was then added followed by 2-hour incubation and then LPS (final concentration: 10 μg/ml) was added followed by 24-hour stimulation. After the stimulation, the cell supernatant was recovered (500 μ/l each), and centrifuged at 15000 rpm for 2 min, and the insoluble fractions were removed; the samples were thus obtained.
The amount of IL-1β secretion was examined using mouse IL-1β ELISA assay kit (R&D Systems; Minneapolis, U.S.). First, 50 μl of Reaction Buffer was added to 96-well microplates, on which mouse IL-1β antibody (polyclonal antibody) had been fixed, and 50 βl of the aforementioned sample were applied to each well of the plates. […] Subsequently, 100 μl of stopping solution was added and the OD value at 450 nm was measured using a microplate reader. Then, the concentration of IL-1β was determined from the calibration curve constructed using mouseIL-1β standard supplied with mouse IL-1β ELISA assay kit.
(In an ELISA, binding on a coated surface is turned into a signal by an enzyme label.)

Test [8] relates to RAW264.7 cells. Nature of the test: COX-2 production in LPS-activated RAW264.7 cells (Western blot). The format is cell-based. The settings on record: LPS 10 μg/ml, 24 h, 1, 3, 10 μg/ml compound. The text has this:
It is known that macrophages activated by inflammatory stimuli and growth factor produces COX-2, a prostaglandin synthase, which is responsible for various pathological conditions such as inflammation, cancer cell proliferation, cancer development, angiogenesis, tumor metastasis, etc. Further, it has recently been known that, in systemic lupus erythematosus (SLE), which is an autoimmune disease, self-reactive T cells acquire resistance to apoptosis with increasing COX-2 expression (Nature Medicine 10, 411-415, 2004) Thus, on the assumption that use of (±)-DHM2EQ might make it possible to inhibit macrophage activation and thereby to suppress COX-2 production, the effect of (±)-DHM2EQ on COX-2 production in RAW264.7 cells derived from macrophages activated by LPS stimulation was examined.
RAW264.7 cells were plated at 4×10^6 cells/dish in a 100 mm dish (Coaster:Acton, Mass.) containing DMEM medium, and the plates were incubated overnight at 37° C. under 5% CO2. Then, (±)-DHM2EQ (final concentrations: 1, 3, and 10 μg/ml) was added followed by 2-hour incubation and then LPS (final concentration: 10 μg/ml) was added followed by 24-hour stimulation. The cells were then recovered and lysed with 65 μl of lysis buffer (50 mM Tris-HCl: pH 8.0, 1% NP-40, 20 mM EDTA, 100 mM NaVO4, 0.1 mg/ml leupeptin, 1 mM PMSF) and SDS-PAGE was performed. […]
(A western blot detects proteins with antibodies after separation by electrophoresis.)

In test [9] the test system is RAW264.7 cells. Nature of the test: IL-6 secretion from LPS-activated RAW264.7 cells (ELISA). The class given is cell-based. The settings on record: LPS 10 μg/ml, 24 h.
For test [10], the system named is RAW264.7 cells. The test can be described thus: iNOS expression in LPS-activated RAW264.7 cells (Western blot). The class given is cell-based. The settings on record: LPS 10 μg/ml, 24 h, 0, 1, 3, 10 μg/ml compound. The protocol: Since NO is produced by the enzyme iNOS within cells, it was examined whether this suppression results from suppression of iNOS expression.
Cells were plated in 100 mm dishes at 4×10^5 cells/ml, incubated overnight, and then (±)-DHM2EQ was added at final concentrations of 0, 1, 3, and 10 μg/ml. After 2 hours, LPS (final concentration: 10 μg/ml) was added to stimulate for 24 hours. Then, cell suspension was collected and centrifuged, and cells were lysed in 65 μl of prepared lysis buffer (50 mM Tris-HCl: pH 8.0, 1% NP-40, 20 mM EDTA, 100 mM NaVO4, 0.1 mg/ml leupeptin, 1 mM PMSF). Then, the supernatant of the cell lysate was isolated, each protein concentration was measured, and the predetermined mass of protein was boiled as a sample. This sample was subjected to SDS-PAGE and the proteins on the gel were transferred to a nitrocellulose membrane, which was then reacted with anti-iNOS antibody (Santa Cruz) followed by sheep anti-rabbit IgG antibody (Amersham). Subsequently, color was developed by the ECL detection system, and the signal was detected by exposing the membrane to the film (Fuji Photo Film)

The structures appear in SMILES notation.

Turning to `O=C(NC1=CC(=O)[C@H]2O[C@H]2[C@H]1O)c1ccccc1O` [(−)-DHM2EQ], the “inhibitory effect on NF-κB activation” value in test [1] is recorded as “stronger inhibitory effect on NF-κB activation than (±)-DHM2EQ”.
Turning to `O=C(NC1=CC(=O)C2OC2C1O)c1ccccc1O` (racemic) [(±)-DHM2EQ, 5,6-epoxy-4-hydroxy-3-salicyloylamino-2-cyclohexenone], the TNF-α production result in test [2] is on record as “suppresses TNF-α production depending on its treatment concentration”. In addition, the NO production result in test [3] (IFN-γ 100 ng/ml + LPS 10 μg/ml, 18 h, 0, 1, 3, 10 μg/ml compound) is “suppressed depending on the concentration of (±)-DHM2EQ added”; in test [3] (IFN-γ + LPS, 10 μg/ml compound) it was “suppressed almost to the control level”; in [4] (10 μg/ml compound), “suppressed to the control level”; in test [4] (concentration series) it was “suppressed depending on (±)-DHM2EQ treatment concentration”. Further, the “intracellular NO production (DAF-2DA fluorescence)” value in test [5] is on record as “suppressed to the control level”. Further, the “phagocytosis of E. coli” value in [6] (IL-1β stimulation, pretreatment with 10 μg/ml compound) is listed as “suppressed almost to the same level as the control”; in test [6] (LPS stimulation, pretreatment with 10 μg/ml compound), “suppressed almost to the same level as the control”; in [6] (LPS stimulation, pretreatment, concentration series), “suppressed depending on its treatment concentration”. Also, the IL-1β secretion result in test [7] was “suppresses the expression of IL-1β depending on its treatment concentration”. Also, the COX-2 production result in test [8] is “suppresses COX-2 production depending on its treatment concentration”. In test [9], the IL-6 production result is reported as “suppresses IL-6 production depending on its treatment concentration”. Moreover, the iNOS expression result in test [10] is reported as “suppresses the expression of iNOS depending on its treatment concentration”.
